For series [1], the system named is PC-9 (ex19del). Description: ex19del human tumour xenograft, tumour growth inhibition.
Description: (§1) A PC-9 derivative with an ex19del/C797S in cis double mutation was engineered by CRISPR knock-in.
Series [2] has as its system PC-9 derivative with an ex19del/C797S in cis double mutation. The series is described as follows: C797S double mutant knock-in xenograft, tumour growth inhibition. The note with it: 15 mg/kg BID, PC-9 ex19del/C797S xenograft.
Description: as §1
Series [3] concerns the target T1, BCRP (Homo sapiens, UniProt Q9UNQ0).
T1 construct: expressed in transfected cells; host or cells: MDCK
T1 sequence (Q9UNQ0 1-655): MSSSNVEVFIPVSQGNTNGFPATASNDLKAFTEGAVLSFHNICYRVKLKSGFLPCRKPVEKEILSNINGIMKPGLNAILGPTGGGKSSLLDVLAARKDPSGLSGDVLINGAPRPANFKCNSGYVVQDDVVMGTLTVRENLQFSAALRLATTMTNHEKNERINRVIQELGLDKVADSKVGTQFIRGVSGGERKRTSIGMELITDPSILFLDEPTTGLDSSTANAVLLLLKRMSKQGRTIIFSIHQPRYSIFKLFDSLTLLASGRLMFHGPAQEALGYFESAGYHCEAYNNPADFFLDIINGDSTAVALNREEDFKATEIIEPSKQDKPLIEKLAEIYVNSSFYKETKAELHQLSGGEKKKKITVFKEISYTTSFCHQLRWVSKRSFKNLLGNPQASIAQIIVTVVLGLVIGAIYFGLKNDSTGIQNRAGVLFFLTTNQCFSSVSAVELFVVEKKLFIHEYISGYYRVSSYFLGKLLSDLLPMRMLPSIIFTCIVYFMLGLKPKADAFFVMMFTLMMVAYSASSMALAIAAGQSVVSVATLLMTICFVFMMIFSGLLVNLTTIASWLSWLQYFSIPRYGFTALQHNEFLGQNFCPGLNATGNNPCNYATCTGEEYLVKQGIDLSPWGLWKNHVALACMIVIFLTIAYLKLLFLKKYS
Description: MDCK-BCRP efflux. The note with it: dog, read-out: MDCK-BCRP ER. Type of series: in vitro ADME.

Series [4] addresses T2, MDR1 (Homo sapiens, UniProt P08183).
T2 construct: expressed in transfected cells; host or cells: MDCK
The series is described as follows: MDCK-MDR1 efflux. Type of series: in vitro ADME. To be noted: dog, read-out: MDCK-MDR1 ER.

The nature of series [5]: Caco-2 in vitro permeability (efflux ratio). In kind it is in vitro ADME. The note with it: human, read-out: CAco-2 ER. For orientation: Passage across Caco-2 layers is used to estimate intestinal permeability.
Series [6] has as its system Ba/F3 lines expressing the noted EGFR constructs. The series is described as follows: Ba/F3 proliferation inhibition (CellTiterGlo, 72 hr assay). Type of series: cell-based. (Cellular ATP, detected with luciferase, serves as a proxy for viable cell number.)
In series [7] the test system is NCI-H3255 (L858R). The series is described as follows: L858R human tumour xenograft, tumour growth inhibition. The note with it: 5-15 mg/kg BID; L858R human tumour xenografts in mice. In general terms: A xenograft is tissue or cells of one species grown in another, often human tumour cells in immunodeficient mice.
Description: as §1
Series [8] is classed as in vivo.
Series [9] relates to pEGFR (phosphorylated EGFR, Tyr1068). The series is described as follows: pEGFR (Tyr1068) inhibition, AlphaLISA. To be noted: compared with gefitinib.
Description: as §1
Series [10] concerns human NSCLC cell lines. The series is described as follows: Human cancer cell line proliferation inhibition (CellTiterGlo). Type of series: cell-based.
Series [11] deals with pEGFR. Description: PC-9 (ex19del) PK/PD study, pEGFR pharmacodynamic readout. In kind it is in vivo. The note with it: 15 mg/kg single dose, over a 12-hour BID dosing window.
Series [12] in a line: Free CNS penetration (Kp,uu), rat brain slice method. Type of series: in vivo, mice and rats. The note with it: oral dosing; rat brain slice method for free fraction in brain; osimertinib run in parallel as benchmark. As for the experimental part: In order to characterise compound A in vitro and in vivo potency and selectivity for C797S-active double-mutant inhibitor vs. EGFR wild type, compound A was assessed in vitro and in vivo across a variety of engineered or endogenously occurring single (ex19del or L858R) or double (ex19del/C797S or L858R/C797S) mutant systems. In addition, the CNS exposure of compound A was also characterised using a gold-standard rat brain slice method to assess free exposure in brain tissue.
Compound A is an EGFR inhibitor of formula I(a). Compound A was tested across a panel of in vitro biochemical, cell signalling, and proliferation assays for potency against EGFR L858R and ex19del single mutants and/or the corresponding C797S double mutants. Additionally, compound A was tested for in vivo activity in mice bearing human NSCLC cell line xenografts NCI-H3255 (L858R) and PC-9 (ex19del), and in a PC-9-derived ex19del/C797S double mutant knock-in xenograft. Free CNS penetration (Kp,uu) was determined in nontumour bearing mice and rats. Osimertinib and/or gefitinib were used as benchmark molecules across assays.

Read-outs that look alike come from different tables or passages of the source.

T2 sequence (P08183 whole entry): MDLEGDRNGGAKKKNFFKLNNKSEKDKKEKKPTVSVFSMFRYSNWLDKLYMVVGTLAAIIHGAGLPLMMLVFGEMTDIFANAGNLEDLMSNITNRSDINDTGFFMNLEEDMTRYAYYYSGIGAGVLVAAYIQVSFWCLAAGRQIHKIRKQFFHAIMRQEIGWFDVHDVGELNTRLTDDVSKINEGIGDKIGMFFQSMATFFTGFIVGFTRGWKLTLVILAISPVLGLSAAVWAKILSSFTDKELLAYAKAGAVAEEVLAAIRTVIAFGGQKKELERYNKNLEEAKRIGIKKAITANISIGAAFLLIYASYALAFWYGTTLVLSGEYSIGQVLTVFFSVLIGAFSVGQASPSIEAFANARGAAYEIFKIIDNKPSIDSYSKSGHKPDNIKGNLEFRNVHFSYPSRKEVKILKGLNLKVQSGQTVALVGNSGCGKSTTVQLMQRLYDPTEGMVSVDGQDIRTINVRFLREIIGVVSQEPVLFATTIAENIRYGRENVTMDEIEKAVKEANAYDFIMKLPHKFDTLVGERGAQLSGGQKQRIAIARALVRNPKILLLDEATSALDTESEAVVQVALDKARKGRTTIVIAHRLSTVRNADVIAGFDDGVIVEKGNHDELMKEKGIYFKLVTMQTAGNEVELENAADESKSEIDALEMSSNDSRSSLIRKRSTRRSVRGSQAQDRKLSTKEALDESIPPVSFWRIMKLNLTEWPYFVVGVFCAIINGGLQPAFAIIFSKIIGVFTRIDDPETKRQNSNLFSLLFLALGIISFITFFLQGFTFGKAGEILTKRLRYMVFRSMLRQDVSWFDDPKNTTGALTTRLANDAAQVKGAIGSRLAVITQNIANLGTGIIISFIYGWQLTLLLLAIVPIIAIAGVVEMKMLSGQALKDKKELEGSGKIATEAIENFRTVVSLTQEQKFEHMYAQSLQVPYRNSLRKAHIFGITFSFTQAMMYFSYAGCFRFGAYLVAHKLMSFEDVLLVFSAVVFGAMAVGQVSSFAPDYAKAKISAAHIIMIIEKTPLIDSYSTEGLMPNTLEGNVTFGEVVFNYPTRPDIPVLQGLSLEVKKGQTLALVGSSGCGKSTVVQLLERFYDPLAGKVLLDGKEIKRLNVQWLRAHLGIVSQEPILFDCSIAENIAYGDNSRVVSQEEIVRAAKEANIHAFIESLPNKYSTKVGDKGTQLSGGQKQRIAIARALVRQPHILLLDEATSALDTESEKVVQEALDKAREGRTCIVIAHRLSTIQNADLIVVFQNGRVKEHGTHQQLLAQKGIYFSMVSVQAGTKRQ

A word on the inhibition: it is how much of the control response was suppressed. The low end stands for a weak effect, the high end for a strong effect. `COCC[C@H]1CNC(=O)c2c1[nH]c(-c1ccnc(C)n1)c2Nc1cccc(Cl)c1OC` [Compound A]: the “tumour growth inhibition (TGI)” value in series [1] (5-15 mg/kg BID, ex19del human tumour xenografts in mice) was at least 90%; in [7] it was at least 90%. Moreover, the “antitumour activity in EGFR single mutant xenografts” value in [1] (EGFR single mutant xenografts (ex19del or L858R), 15 mg/kg BID or 50 mg/kg QD in mice) was “regression”. The “in vivo tumour growth inhibition in the presence of C797S” value is recorded as “retained in vivo tumour growth inhibition” in [2] and “no drop-off in antitumour activity” in series [2] (listed as compound A). For the same molecule, the efflux ratio at 1 µM is 1.17 in series [3], 0.95 in series [4] and 1.76 in [5]. For the same molecule, the “inhibition of L858R, ex19del, L858R/C797S and ex19del/C797S mutants in proliferation assays” value in series [6] (engineered Ba/F3) and in series [10] (human NSCLC cell lines) was “high picomolar to low nanomolar” each time. Further, the “selectivity for all tested mutants relative to wild-type EGFR” value in series [6] (engineered Ba/F3 cells) and in series [10] (human cancer cells) was above 150 x each time. The tolerability result in series [8] (15 mg/kg BID or 50 mg/kg QD in mice) is given as “well tolerated”; in series [8] (5-15 mg/kg BID, mice), “well tolerated”. Moreover, the “selectivity for all tested EGFR mutant cell lines relative to EGFR wild-type cell line NCI-H2073 (pEGFR inhibition IC50)” value in series [9] is given as “exceeded that of gefitinib”. Also, the inhibition at 15 mg/kg in [11] is above 50%. Further, in [12], the “brain exposure Kp,uu” value was “comparable to Osimertinib”.

Values taken from patent publication EP4534085A1, “COMPOUNDS FOR USE IN METHODS OF TREATING CANCER” (Scorpion Therapeutics, Inc., priority 2023, dated 2025).
